Values after ≈ are worked out from the molar mass of the structure shown.
Experiments:
[1] = in vivo; cited from earlier work
physchem = conditions: water, thermodynamic from solid
Protocol: Analyses were performed using the Perkin Elmer Lambda 5 UV/V is Spectrophotometer.
Two sets of standards were prepared by serial dilution of:
1. 10% poloxamer P407/1% Propofol solution in water.
2. 1% Propofol solution in ethanol (EtOH).
Dilutions were performed with water and EtOH respectively. The standards were further diluted one hundred fold prior to measurement of their UV absorption spectra recorded.

CC(C)c1cccc(C(C)C)c1O [Propofol, 2,6-bis(1-methylethyl)phenol; 2,6-diisopropylphenol]
dose required for long term infusion for anaesthesia [1]: 4-12 mg/kg per hour | time of maximum effect after dosing [1]: within about one minute | solubility thermodynamic (physchem): ~1000 µM (≈ 178 µg/mL)

Reference: patent US20040253277A1, “Anaesthetic formulations of propofol” (priority 2001, published 2004)
